CCOc1ncc(C)c2c1[C@H](c1ccc(C#N)cc1OC)C(C(N)=O)=C(C)N2
solubility (mole fraction)
Settings	in 2-butanone	in acetone	in acetonitrile	in dichloromethane	in ethanol	in ethyl acetate	in isopropanol	in isopropyl acetate	in methanol	in methyl acetate
273.15 K	0.0031	0.00376	0.000808	0.0047	0.000949	0.00114	0.000229	0.000378	0.004	0.00127
278.15 K	0.00347	0.00407	0.000973	0.00506	0.00115	0.00128	0.000333	0.000459	0.00422	0.00136
283.15 K	0.00376	0.00449	0.00111	0.00565	0.00135	0.00143	0.000443	0.000563	0.0045	0.0015
288.15 K	0.0041	0.00508	0.00129	0.00622	0.00156	0.00157	0.000554	0.000647	0.00484	0.00166
293.15 K	0.0044	0.00545	0.00144	0.00669	0.00182	0.0017	0.000682	0.000728	0.00515	0.00182
298.15 K	0.00468	0.00577	0.00166	0.00724	0.00206	0.00182	0.000822	0.000809	0.00553	0.00197
303.15 K	0.00508	0.00614	0.0019	0.00766	0.00233	0.00195	0.000984	0.00089	0.00599	0.00211
308.15 K	0.00542	0.00665	0.00217	0.00814	0.00261	0.00211	0.00122	0.000979	0.00638	0.00229
313.15 K	0.00587	0.00725	0.00247	–	0.00299	0.00225	0.00152	0.00113	0.00684	0.00248

Reference: BigSolDB 2.1
